Values joined by “and” are separate entries in the source; they are usually repeats but may differ in a detail not shown here. Identical values can stand only once. Like-named read-outs stand apart in the source and are kept apart here.
How the values were obtained:
[1] = test system: ER-dependent transcriptional activity in T47D-KBluc cells; assay: ERE-luciferase reporter in T47D-KBluc cells, agonist assessment (absence of E2); type: cell-based, human; parameters: Emax: dose or concentration left out as unconfirmed; details: for Emax: Homo sapiens, read-out: E/Emax (%) VEH; for E/Emax (%) VEH: lignans 5 μM, absence of E2 (VEH), relative to Emax induced by 0.1 nM E2, Mean ± SEM
Description: (§1) Lactols (5) and (6) were tested as a mixture of the two epimers obtained.
(§2) Chemical screening was carried out by using T47D-KBluc cells, an ER+ BC cell line that is stably transfected with the pGL2.TATA.Inr.Luc.neo containing three ER-responsive elements (ERE). The T47D-KBluc cells were maintained in standard growth media as detailed above. Dosing media was further modified by reduction of DCC-FBS to 5%. […] Chemical screening was also carried out by using the triple negative BC cell line MDA-kb2 cells that stably expresses pMMTV.neo.luc gene, an AR- and GR-responsive reporter gene. […] The T47D-KBluc cells or the MDA-kb2 cells were seeded at 100,000 cells per well in 24-well plates (Nunclon, Sigma-Aldrich, Darmstadt, Germany ) and allowed to attach overnight. Then, the media was replaced with 1 mL/well of dosing media and test compounds incubated 24 h. Then, the cells were harvested in 100 µL passive lysis buffer (Promega, Madison, WI, USA) per well. The relative light units (RLUs), which correspond to luciferase activity from each sample, were measured by using Luciferase Assay Reagent (Promega) in a Clarity luminescence microplate reader (BIOTEK, Winooski, VT, USA). The RLUs from each sample were normalized by protein concentration and converted to fold induction with respect to vehicle-treated control. […] Then, the percent of efficacy (E) of each tested compound, as compared with Emax, was calculated. […] Data are expressed as mean ± SEM of triplicate independent experiments, where each treatment was assayed in triplicate. […] Duplicate plates were dosed in parallel to control the effects of compounds on cell viability. The protein concentration was measured in cell lysate using colorimetric assay reagent (BioRad, CA, USA).

rhERα-LBD = target: T1, rhERα-LBD (Homo sapiens, UniProt P03372); assay: LanthaScreen TR-FRET competitive binding assay; details: 10-point competition curves, Mean ± SE
T1 sequence (P03372 311-547 limits assumed): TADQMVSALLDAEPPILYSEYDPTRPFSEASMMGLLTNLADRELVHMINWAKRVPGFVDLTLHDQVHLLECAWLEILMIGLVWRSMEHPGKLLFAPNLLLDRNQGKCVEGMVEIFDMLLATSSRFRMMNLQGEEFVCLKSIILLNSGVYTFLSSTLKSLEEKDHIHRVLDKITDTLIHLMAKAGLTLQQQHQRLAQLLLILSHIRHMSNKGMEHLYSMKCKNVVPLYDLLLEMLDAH
Description: Next, the binding of lignan derivatives to the LBD of rhERα was analyzed by using time-resolved fluorescence resonance energy transfer (TR-FRET) competitive binding assay. […] The LanthaScreen^TM TR-FRET Nuclear Receptor (NR) binding assay (SelectScreen^TM Profiling Service, Life Technologies, Carlsbad, CA, USA) was used for screening of potential binding of lignan derivatives to human ERα [33]. Briefly, the kit uses the recombinant human ERα (rhERα) protein and a tight binding, selective fluorescent ligand, Fluormone^TM tracer. […] The rhERα protein and the tracer form rhERα/tracer complex, resulting in a high FP value. […] Dose-response competition curves were fitted by nonlinear regression analyses in the GraphPad software 8 (GraphPad Software, San Diego, CA, USA) to obtain IC50 values.
Data are expressed as mean ± SEM for from at least three independent experiments, where each concentration is tested in triplicate.

T47D cells = assay: MTT cell viability, E2-depleted T47D cells; type: cell-based, human; details: 10 μM, 24 h, absence of E2
Description: The effects of lignan derivatives were evaluated on human ER+ BC cells.
Cells were maintained in RPMI (Lonza, Basel, Switzerland) growth media, without phenol red, supplemented with 10% fetal bovine serum (FBS) (Lonza), 2 mM glutamine, 10 mM HEPES, 1 mM sodium pyruvate, 100 UI/mL penicillin and 100 μg/mL streptomycin. Cells were growth in a humidified incubator with 5% CO2 at 37 °C.
The cells were maintained in standard growth media as detailed above and seeded at exponential growth density (6000 cells per well) in 96-well plates (BD Falcon, France). The cells were then treated with vehicle or tests compounds (from 0.01 μM to 10 μM) for 24–72 h. The mitochondrial metabolization of the tetrazolium salt 3-(4,5-methyltiazol-2yl-)-2,5diphenyl-tetrazolium bromide] (MTT) (Applichen, Darmstadt, Germany) was used as an indicator of cell viability.
Figure 6 Effects of lignans on ER+ breast cancer cell viability. […] Then, the mitochondrial metabolization of MTT was used as an indicator of cell viability, as described in the Material and Methods. Data are expressed as mean ± SEM for at least three independent experiments, where each concentration is tested in triplicate. * p < 0.05, ** p < 0.01, and *** p < 0.001 versus VEH-treated cells.

[2] = test system: E2-induced ERE-luciferase activity in T47D-KBluc cells; assay: ERE-luciferase reporter in T47D-KBluc cells, antagonist assessment (presence of 0.1 nM E2); type: cell-based; details: Homo sapiens
Description: as §1
as §2, with “Then, the media was replaced with 1 mL/well of dosing media and test compounds incubated 24 h.” left out

[3] = read-out: IC50 (inhibition of Fluormone tracer binding to rhERα)
[4] = read-out: IC50 (reduction of E2-induced Emax), lignans 1 μM to 10 μM, 1 h before 0.1 nM E2 for 18 h, predicted by nonlinear regression, Mean ± SE

| SMILES | Emax [1] [%] | E/Emax (%) VEH [1] | IC50 (rhERα-LBD; [3]) | reduction of cell viability (T47D cells) | further results |
| --- | --- | --- | --- | --- | --- |
| COc1ccc(C[C@H]2C(O)OC[C@@H]2Cc2ccc3c(c2)OCO3)cc1OC (mixture of isomers) [Compound 5, (3R,4R)-4-(Benzo[d][1,3]dioxol-5-ylmethyl)-3-(3,4-dimethoxybenzyl) Tetrahydro Furan-2-ol] | 22.7 ± 4.26 | weak estrogenic activity | 3.24 ± 2.03 µM | – | – |
| COc1ccc(C[C@H]2COC(O)[C@@H]2Cc2ccc(OC)c(OC)c2)cc1OC (mixture of isomers) [Compound 6, (3R,4R)-3,4-Bis(3,4-dimethoxybenzyl)tetrahydrofuran-2-ol] | 5.86 ± 0.84 | – | – | 16.6% | – |
| COc1ccc(C[C@H]2C(=O)OC[C@@H]2Cc2ccc3c(c2)OCO3)cc1OC [Compound 1, (−)-Bursehernin] | 17.6 ± 5.4 | – | – | reduced cell viability | IC50 ([2]; lignans 1 μM to 10 μM, 1 h before 0.1 nM E2 for 18 h, predicted by nonlinear regression, Mean ± SE, read-out: IC50 (reduction of E2-induced Emax)): < 20 µM; IC50 (rhERα-LBD; IC50 (inhibition of Fluormone tracer binding to rhERα)): 0.39 ± 0.19 µM |
| O=C1OC[C@H](Cc2ccc(O)c(O)c2)[C@H]1Cc1ccc(O)c(O)c1 [Compound 3, (3R,4R)-3,4-Bis(3,4-dihydroxybenzyl)dihydrofuran-2(3H)-one] | 24.5 ± 6.53 | weak estrogenic activity | 0.6 ± 0.11 µM | – | – |
| COc1ccc(C[C@H]2C(=O)OC[C@@H]2Cc2ccc(O)c(O)c2)cc1OC [Compound 4, (3R,4R)-4-(3,4-Dihydroxybenzyl)-3-(3,4-dimethoxybenzyl)dihydrofuran-2(3H)-one] | 15.8 ± 2.15 | – | 6 µM and 6.04 µM | – | IC50 [2, 4]: > 10 µM |
| CC/C(=C(\c1ccc(O)cc1)c1ccc(OCCN(C)C)cc1)c1ccccc1 [Compound 4-OHTAM, 4-hydroxytamoxifen, reference compound] | – | – | – | – | IC50 ([2]; read-out: IC50 (abolition of E2 effect by coincubation), antiestrogen coincubated with E2): 0.38 ± 0.009 µM |
| COc1ccc(C[C@@H](CO)[C@H](CO)Cc2ccc3c(c2)OCO3)cc1OC [Compound 7, (2R,3R)-2-(Benzo[d][1,3]dioxol-5-ylmethyl)-3-(3,4-dimethoxybenzyl)butane-1,4-diol] | 13.1 ± 2.58 | – | 4 ± 1.6 µM | – | – |
| COc1ccc(C[C@@H](CO)[C@H](CO)Cc2ccc(OC)c(OC)c2)cc1OC [Compound 8, (2R,3R)-2,3-Bis(3,4-dimethoxybenzyl)butane-1,4-diol] | 9.41 ± 1.88 | – | – | reduced cell viability | – |
| COc1ccc(C[C@H]2COC[C@@H]2Cc2ccc3c(c2)OCO3)cc1OC [Compound 9] | 23.8 ± 6.34 | weak estrogenic activity | 8 µM and 7.65 µM | 55.6% | – |
| COc1ccc(C[C@H]2COC[C@@H]2Cc2ccc(OC)c(OC)c2)cc1OC [Compound 10, (3R,4R)-3,4-Bis(3,4-dimethoxybenzyl)tetrahydrofuran] | 3.91 ± 1.55 | – | – | – | – |
| COc1ccc(C[C@H]2COC[C@@H]2Cc2ccc(O)c(O)c2)cc1OC [Compound 11] | 12.1 ± 4.33 | weak estrogenic activity | 0.5 ± 0.17 µM | reduced cell viability | IC50 [2, 4]: < 20 µM |
| COc1ccc(C[C@@H](COS(C)(=O)=O)[C@H](COS(C)(=O)=O)Cc2ccc3c(c2)OCO3)cc1OC [Compound 12, (2R,3R)-2-(Benzo[d][1,3]dioxol-5-ylmethyl)-3-(3,4-dimethoxybenzyl)butane-1,4-diyl Dimethanesulfonate] | 22.2 ± 3.89 | weak estrogenic activity | – | reduced cell viability | – |
| COc1ccc(C[C@@H](C)[C@H](C)Cc2ccc3c(c2)OCO3)cc1OC [Compound 13, 5-((2R,3R)-4-(3,4-Dimethoxyphenyl)-2,3-dimethylbutyl)benzo[d][1,3]dioxole] | 16.7 ± 3.37 | – | 5.02 ± 1.54 µM | reduced cell viability | – |
| COc1cc2c(cc1OC)-c1cc(O)c(O)cc1C[C@H]1COC(=O)[C@@H]1C2 [Compound 15, (3aR,13aR)-6,7-Dihydroxy-10,11-dimethoxy-3a,4,13,13a-tetrahydro Dibenzo [4,5:6,7]Cycloocta [1,2-c]Furan-1(3H)-one] | 15.6 ± 5.66 | – | – | – | – |
| O=C1OC[C@@H]2Cc3cc(O)c(O)cc3-c3cc(O)c(O)cc3C[C@@H]12 [Compound 16, (3aR,13aR)-6,7,10,11-Tetrahydroxy-3a,4,13,13a-tetrahydrodibenzo [4,5:6,7] Cycloocta [1,2-c]Furan-1(3H)-One] | 11.3 ± 3.47 | – | – | – | – |
| C[C@]12CC[C@@H]3c4ccc(O)cc4CC[C@H]3[C@@H]1CC[C@@H]2O [Compound E2, 17β-estradiol, reference compound] | 100 ± 11.3 | – | – | – | – |
